The text below walks through data of ChEMBL document CHEMBL1149176, “(2R)-2-ethylchromane-2-carboxylic acids: discovery of novel PPARalpha/gamma dual agonists as antihyperglycemic and hypolipidemic agents” (J Med Chem, 2004).

For test [1], the target named is T1, Peroxisome proliferator-activated receptor gamma (Homo sapiens, UniProt P37231).
T1 sequence (P37231 whole entry): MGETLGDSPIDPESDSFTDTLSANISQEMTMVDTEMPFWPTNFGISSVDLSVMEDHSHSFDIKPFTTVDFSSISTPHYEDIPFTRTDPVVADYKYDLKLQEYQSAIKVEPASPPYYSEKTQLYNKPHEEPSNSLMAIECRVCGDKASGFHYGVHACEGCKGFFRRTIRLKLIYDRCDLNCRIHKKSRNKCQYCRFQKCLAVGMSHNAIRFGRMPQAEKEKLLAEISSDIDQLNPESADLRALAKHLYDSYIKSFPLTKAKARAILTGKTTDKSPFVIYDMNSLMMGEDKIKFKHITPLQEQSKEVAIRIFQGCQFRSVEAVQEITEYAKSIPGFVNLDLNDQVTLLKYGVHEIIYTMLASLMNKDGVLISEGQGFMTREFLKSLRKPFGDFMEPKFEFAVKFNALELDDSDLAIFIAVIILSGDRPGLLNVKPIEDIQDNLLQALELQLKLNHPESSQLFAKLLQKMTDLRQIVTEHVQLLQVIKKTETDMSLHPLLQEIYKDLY
Nature of the test: In vitro binding affinity for human peroxisome proliferator activated receptor gamma using scintillation proximity assay (SPA). A general note: SPA uses beads or plates that emit light when radiolabelled molecules are held near them.

The target of test [2] is T2, Peroxisome proliferator-activated receptor alpha (Homo sapiens, UniProt Q07869).
T2 sequence (Q07869 whole entry): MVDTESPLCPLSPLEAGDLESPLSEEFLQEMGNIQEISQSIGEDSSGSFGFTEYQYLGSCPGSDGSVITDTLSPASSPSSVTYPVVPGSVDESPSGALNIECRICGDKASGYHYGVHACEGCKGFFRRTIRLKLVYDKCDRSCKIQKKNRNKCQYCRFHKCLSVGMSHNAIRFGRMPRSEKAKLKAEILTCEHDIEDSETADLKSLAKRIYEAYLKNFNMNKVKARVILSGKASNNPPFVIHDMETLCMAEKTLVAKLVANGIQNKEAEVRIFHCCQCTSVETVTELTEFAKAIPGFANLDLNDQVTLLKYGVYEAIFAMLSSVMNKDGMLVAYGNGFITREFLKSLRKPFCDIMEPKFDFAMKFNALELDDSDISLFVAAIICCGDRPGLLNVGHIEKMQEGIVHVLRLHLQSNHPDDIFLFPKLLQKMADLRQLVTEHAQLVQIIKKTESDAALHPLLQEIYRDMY
In words: In vitro potency of PPAR gene activation against human Peroxisome proliferator activated receptor alpha using chimeric Gal4-hPPAR transactivation assay (TA).

For test [3], the target named is T1, Peroxisome proliferator-activated receptor gamma.
Description: In vitro potency of PPAR gene activation against human PPAR gamma receptor using chimeric Gal4-hPPAR transactivation assay (TA)
Test [4] concerns the target T3, Peroxisome proliferator-activated receptor delta (Homo sapiens, UniProt Q03181).
T3 sequence (Q03181 whole entry): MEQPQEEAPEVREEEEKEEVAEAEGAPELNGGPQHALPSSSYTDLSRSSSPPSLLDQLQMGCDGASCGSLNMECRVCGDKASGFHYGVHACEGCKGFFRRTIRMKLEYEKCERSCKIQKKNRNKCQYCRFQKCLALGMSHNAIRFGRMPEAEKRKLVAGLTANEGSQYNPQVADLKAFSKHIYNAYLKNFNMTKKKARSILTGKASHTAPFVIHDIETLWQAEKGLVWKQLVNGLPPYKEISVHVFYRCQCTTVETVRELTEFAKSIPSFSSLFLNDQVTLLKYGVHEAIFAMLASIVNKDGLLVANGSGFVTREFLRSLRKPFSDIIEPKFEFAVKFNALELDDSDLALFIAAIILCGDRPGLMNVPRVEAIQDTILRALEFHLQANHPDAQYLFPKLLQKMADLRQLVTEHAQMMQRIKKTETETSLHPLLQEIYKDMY

In test [5] the target is T2, Peroxisome proliferator-activated receptor alpha.
Description: In vitro binding affinity for human peroxisome proliferator activated receptor alpha using scintillation proximity assay (SPA)
Test [6] shares this target. Nature of the test: In vitro transcriptional activation by human PPAR alpha Gal4 chimera; Not active.

pEC50, pIC50: −log10 of the molar value. A value given as a limit tells only on which side of the number the result lay.

What is called pIC50 is −log10 of the IC50, conventionally taken in molar units. Lower therefore signals a large IC50. As a reminder, the pEC50 is −log10 of the EC50, conventionally taken in molar units. Read a low pEC50 as a large EC50. Take `CCCc1cc(Oc2ccc(OC)cc2)ccc1OCCCOc1ccc2c(c1)OC(CC)(C(=O)O)CC2` (centres undefined): the figures for the pIC50 in test [1], in test [4] and in test [5] were 6.20, less than 4.30 and less than 4.82, respectively. For the same compound, the pEC50 is 5.34 in test [2] and 6.05 in test [3].

The compound `CC[C@@]1(C(=O)O)CCc2ccc(OCCCOc3ccc(Oc4ccc(F)cc4)cc3Cl)cc2O1` showed a pIC50 in test [4] of less than 4.30.

Regarding `CCCc1cc(Oc2ccccc2)ccc1OCCCOc1ccc2c(c1)CCC(C(=O)O)O2` (centres undefined), the pIC50 was 5.54 in test [1], less than 4.82 in test [4] and less than 4.82 in test [5]. Besides, the EC50 result in test [6] was “Not Active”. Also, the pEC50 in test [3] was 5.55.

For the compound `CCCc1cc(Oc2ccccc2)ccc1OCCCOc1ccc2c(c1)OC(CC(C)C)(C(=O)O)CC2` (centres undefined), the pIC50 was 5.92 in test [1], 5.30 in test [4] and 5.52 in test [5].

For `CCCc1cc(Oc2ccccc2)ccc1OCCCCOc1ccc2c(c1)OC(C(=O)O)CC2` (centres undefined), the pIC50 was 5.74 in test [1], less than 4.82 in test [4] and less than 4.82 in test [5]. Further, the pEC50 in test [2] was 5.20; in test [3] it was 5.80.

For `CCCc1cc(Oc2ccccc2)ccc1OCCCCOc1ccc2c(c1)OC(C)(C(=O)O)CC2` (centres undefined), the values for the pIC50 in test [1], in test [4] and in test [5] were 5.29, less than 4.30 and less than 4.82, respectively. Moreover, the pEC50 was 5.28 in test [2] and 5.44 in test [3].

Consider `CCCc1cc(Oc2ccccc2)ccc1OCCCOc1ccc2c(c1)OC(CC)(C(=O)O)CC2` (centres undefined), for which the pIC50 in test [1] was 6.36; in test [4], less than 4.30; in test [5], 6.44. The pEC50 is 7.52 in test [2] and 6.00 in test [3].

On to `CCCc1cc(Oc2ccc(Cl)cc2)ccc1OCCCOc1ccc2c(c1)OC(CC)(C(=O)O)CC2` (centres undefined), for which the pIC50 in test [1] was 5.85; in test [4], less than 4.30; in test [5], 5.40. For the same compound, the pEC50 in test [2] was 6.68; in test [3] it was 6.17.

With `CCCc1cc(Oc2ccc(F)cc2)ccc1OCCCOc1ccc2c(c1)OC(CC)(C(=O)O)CC2` (centres undefined), the pIC50 in test [1] is 5.92; in test [4] it was less than 4.30; in test [5], 6.01. Moreover, the negative logarithm of the EC50 (pEC50) in test [2] is 8.00; in test [3] it was 6.12.

For `CCCc1cc(Oc2ccccc2)ccc1OCCCOc1ccc2c(c1)CCC(C)(C(=O)O)O2` (centres undefined), the figures for the pIC50 in test [1], in test [4] and in test [5] were 5.77, less than 4.30 and 5.48, respectively. The EC50 entry in test [6] is reported as “Not Active”. For the same compound, in test [3], the pEC50 was 5.17.

With `CCCc1cc(Oc2ccccc2)ccc1OCCCCOc1ccc2c(c1)CCC(C(=O)O)O2` (centres undefined), the results for the pIC50 in test [1], in test [4] and in test [5] were 5.52, less than 4.30 and 5.24, respectively. In addition, the EC50 entry in test [6] is “Not Active”. Besides, the negative logarithm of the EC50 (pEC50) in test [3] is 5.60.

`CCCc1cc(Oc2ccccc2)ccc1OCCCOc1ccc2c(c1)OC(C)(C(=O)O)CC2` (centres undefined): the results for the pIC50 in test [1], in test [4] and in test [5] were 6.12, less than 4.30 and 5.72, respectively. In addition, the negative logarithm of the EC50 (pEC50) is 7.00 in test [2] and 6.00 in test [3].

On to `CCCc1cc(Oc2ccccc2)ccc1OCCCOc1ccc2c(c1)OC(C(=O)O)CC2` (centres undefined), for which the results for the pIC50 in test [1], in test [4] and in test [5] were 6.01, 6.77 and 5.82, respectively. Moreover, the pEC50 in test [2] was 5.52; in test [3] it was 5.14.

For `CCCc1cc(Oc2ccccc2)ccc1OCCCOc1ccc2c(c1)OC(CCC)(C(=O)O)CC2` (centres undefined), the pIC50 in test [1] was 6.43; in test [4] it was less than 4.30; in test [5], 5.68. Also, the pEC50 in test [2] is 6.92; in test [3] it was 6.08.

In the case of `CCCc1cc(Oc2ccccc2)ccc1OCCCCOc1ccc2c(c1)CCC(C)(C(=O)O)O2` (centres undefined), the pIC50 in test [1] is 5.64; in test [4], less than 4.30; in test [5], 5.70. The EC50 entry in test [6] is reported as “Not Active”. This compound had a negative-log EC50 (pEC50) in test [3] of 5.92.
